Data set [1] deals with T1, Peroxisome proliferator-activated receptor gamma (Mus musculus, UniProt P37238).
T1 sequence (P37238 whole entry): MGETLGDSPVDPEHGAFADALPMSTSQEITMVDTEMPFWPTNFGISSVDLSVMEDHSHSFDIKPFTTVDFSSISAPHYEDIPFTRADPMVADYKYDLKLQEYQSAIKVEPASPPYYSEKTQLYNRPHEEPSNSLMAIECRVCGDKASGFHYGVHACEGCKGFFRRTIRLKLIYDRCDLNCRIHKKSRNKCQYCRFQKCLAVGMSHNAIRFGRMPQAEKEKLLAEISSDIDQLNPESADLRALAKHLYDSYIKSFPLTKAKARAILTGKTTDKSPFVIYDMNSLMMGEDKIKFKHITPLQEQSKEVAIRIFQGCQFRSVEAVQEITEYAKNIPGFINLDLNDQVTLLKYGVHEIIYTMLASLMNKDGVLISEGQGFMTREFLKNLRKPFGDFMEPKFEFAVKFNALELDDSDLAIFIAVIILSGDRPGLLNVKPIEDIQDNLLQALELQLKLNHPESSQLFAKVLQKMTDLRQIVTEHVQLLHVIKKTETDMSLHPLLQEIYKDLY
The data set can be described thus: Agonist activity at mouse PPARgamma expressed in african green monkey CV1 cells by Gal4 transactivation assay. Type of data set: functional, cell-based, CV-1.

A short description of data set [2]: Half life in CD rat at 1 mg/kg, iv and 5 mg/kg, po. Type of data set: ADME, organism-based. To be noted: in vivo.
Data set [3] deals with Rattus norvegicus. The data set can be described thus: Antidiabetic activity in Zucker fa/fa rat assessed as reduction in plasma glucose level in at 40 mg/kg, po twice a day for 5 days. The data set is classed as functional. Details: scale not given: the % may be the effect or the level left.
The target in data set [4] is T2, Peroxisome proliferator-activated receptor delta (Homo sapiens, UniProt Q03181).
T2 sequence (Q03181 whole entry): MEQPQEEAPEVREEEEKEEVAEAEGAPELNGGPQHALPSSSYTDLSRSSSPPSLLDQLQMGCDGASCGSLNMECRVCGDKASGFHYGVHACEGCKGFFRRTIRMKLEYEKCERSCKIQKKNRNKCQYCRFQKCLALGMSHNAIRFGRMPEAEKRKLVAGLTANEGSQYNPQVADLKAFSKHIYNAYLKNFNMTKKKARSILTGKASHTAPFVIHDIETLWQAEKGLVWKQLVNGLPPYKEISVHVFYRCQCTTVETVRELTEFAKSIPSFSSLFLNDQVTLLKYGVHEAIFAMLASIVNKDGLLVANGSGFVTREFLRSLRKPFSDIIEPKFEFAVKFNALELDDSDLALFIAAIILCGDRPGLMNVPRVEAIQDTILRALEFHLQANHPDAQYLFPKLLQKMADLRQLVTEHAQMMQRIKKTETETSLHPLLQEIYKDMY
As to the kind of experiment: Agonist activity at human PPARdelta expressed in african green monkey CV1 cells by Gal4 transactivation assay. The data set is classed as functional, cell-based, CV-1.

A short description of data set [5]: AUC in Zucker fa/fa rat at 5 mg/kg, po. The data set is classed as ADME, organism-based. Details: dose 5 mg/kg, route oral. To be noted: plasma.
Data set [6] deals with T3, Peroxisome proliferator-activated receptor alpha (Homo sapiens, UniProt Q07869).
T3 sequence (Q07869 whole entry): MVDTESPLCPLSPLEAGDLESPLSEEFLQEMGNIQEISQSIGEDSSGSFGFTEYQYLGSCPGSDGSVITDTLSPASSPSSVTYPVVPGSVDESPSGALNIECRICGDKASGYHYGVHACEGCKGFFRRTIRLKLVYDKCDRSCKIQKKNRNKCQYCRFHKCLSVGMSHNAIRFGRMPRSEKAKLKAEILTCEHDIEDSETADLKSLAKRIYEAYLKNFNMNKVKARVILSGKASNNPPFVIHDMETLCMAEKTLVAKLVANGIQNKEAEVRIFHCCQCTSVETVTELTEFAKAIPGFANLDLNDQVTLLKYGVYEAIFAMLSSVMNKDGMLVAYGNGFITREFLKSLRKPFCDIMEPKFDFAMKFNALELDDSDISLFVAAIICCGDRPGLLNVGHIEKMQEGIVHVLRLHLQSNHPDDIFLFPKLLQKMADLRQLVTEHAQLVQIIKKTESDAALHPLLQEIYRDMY
As to the kind of experiment: Displacement of radiolabeled GW-2433 from human PPARalpha ligand binding domain expressed in Escherichia coli.

In data set [7] the test system is Rattus norvegicus. As to the kind of experiment: Antidiabetic activity in Zucker fa/fa rat assessed as reduction in hematocrit level in at 40 mg/kg, po twice a day for 5 days. Details: scale not given: the % may be the effect or the level left. Type of data set: functional.
Data set [8] is described as follows: Clearance in CD rat at 1 mg/kg, iv and 5 mg/kg, po. Type of data set: ADME, organism-based. To be noted: in vivo.
The target in data set [9] is T2, Peroxisome proliferator-activated receptor delta. As to the kind of experiment: Displacement of radiolabeled GW-2433 from human PPARdelta ligand binding domain expressed in Escherichia coli.
Data set [10] can be described thus: Oral bioavailability in CD rat at 1 mg/kg, iv. To be noted: in vivo. The data set is classed as ADME, organism-based.
For data set [11], the system named is Rattus norvegicus. The data set can be described thus: Antidiabetic activity in Zucker fa/fa rat assessed as reduction in triglyceride level in at 40 mg/kg, po twice a day for 5 days. The data set is classed as functional. Also on record: scale not given: the % may be the effect or the level left.
The target of data set [12] is T3, Peroxisome proliferator-activated receptor alpha. The data set can be described thus: Agonist activity at human PPARalpha expressed in african green monkey CV1 cells by Gal4 transactivation assay. The data set is classed as functional, cell-based, CV-1.
The target in data set [13] is T4, Peroxisome proliferator-activated receptor delta (Mus musculus, UniProt P35396).
T4 sequence (P35396 whole entry): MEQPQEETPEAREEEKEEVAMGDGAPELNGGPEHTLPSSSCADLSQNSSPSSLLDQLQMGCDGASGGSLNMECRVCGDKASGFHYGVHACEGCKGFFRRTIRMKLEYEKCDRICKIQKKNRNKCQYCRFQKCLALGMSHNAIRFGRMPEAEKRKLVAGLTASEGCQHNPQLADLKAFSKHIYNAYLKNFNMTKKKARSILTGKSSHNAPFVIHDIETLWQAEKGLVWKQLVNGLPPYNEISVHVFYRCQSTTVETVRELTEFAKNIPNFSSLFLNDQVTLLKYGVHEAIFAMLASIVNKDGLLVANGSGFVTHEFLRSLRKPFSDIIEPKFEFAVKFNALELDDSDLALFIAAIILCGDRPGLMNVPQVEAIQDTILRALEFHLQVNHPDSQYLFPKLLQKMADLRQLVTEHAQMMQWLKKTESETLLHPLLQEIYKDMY
As to the kind of experiment: Agonist activity at mouse PPARdelta expressed in african green monkey CV1 cells by Gal4 transactivation assay. The data set is classed as functional, cell-based, CV-1.

Data set [14] in a line: Cmax in CD rat at 1 mg/kg, iv and 5 mg/kg, po. Type of data set: ADME, organism-based. To be noted: in vivo.
Data set [15] concerns the target T5, Peroxisome proliferator-activated receptor alpha (Mus musculus) (UniProt P23204).
T5 sequence (whole entry): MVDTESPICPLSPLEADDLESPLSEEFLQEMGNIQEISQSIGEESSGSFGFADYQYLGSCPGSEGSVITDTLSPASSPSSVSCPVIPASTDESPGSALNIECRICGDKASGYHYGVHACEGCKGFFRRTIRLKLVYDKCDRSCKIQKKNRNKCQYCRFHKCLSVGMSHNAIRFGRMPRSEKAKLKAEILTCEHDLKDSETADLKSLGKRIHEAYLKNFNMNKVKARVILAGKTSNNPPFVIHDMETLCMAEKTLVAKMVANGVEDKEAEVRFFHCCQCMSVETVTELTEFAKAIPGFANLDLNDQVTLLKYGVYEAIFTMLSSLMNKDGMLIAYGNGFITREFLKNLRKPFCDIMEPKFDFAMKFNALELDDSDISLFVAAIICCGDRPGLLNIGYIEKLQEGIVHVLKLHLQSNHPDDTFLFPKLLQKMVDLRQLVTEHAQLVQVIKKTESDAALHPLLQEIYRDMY
As to the kind of experiment: Agonist activity at mouse PPARalpha expressed in african green monkey CV1 cells by Gal4 transactivation assay relative to SW516. As to conditions: CV-1. Type of data set: functional, cell-based.

Data set [16] is described as follows: Volume of distribution at steady state in CD rat at 1 mg/kg, iv and 5 mg/kg, po. The data set is classed as ADME, organism-based. As to conditions: in vivo, read-out: Vdss.
Data set [17] in a line: AUC in CD rat at 5 mg/kg, po. The data set is classed as ADME, organism-based. Also on record: dose 5 mg/kg, route oral. To be noted: plasma.
The target in data set [18] is T6, Peroxisome proliferator-activated receptor alpha (Mus musculus, UniProt P23204).
T6 sequence (P23204 whole entry): T5 sequence (whole entry)
The data set can be described thus: Agonist activity at mouse PPARalpha expressed in african green monkey CV1 cells by Gal4 transactivation assay. The data set is classed as functional, cell-based, CV-1.

Some results are limits rather than exact numbers.

A word on the EC50: it is the concentration that produces a half-maximal response. The half-life is how long it takes for the measured level to halve. The AUC is the area under the concentration-time curve, a measure of exposure. What is called IC50 is the concentration at which inhibition is half-maximal. For orientation: bioavailability means the share of a dose that reaches the circulation, judged against a reference dose that is usually intravenous. In general, Cmax refers to the peak of the concentration-time curve.

On to `CCC(NC(=O)c1ccc2c(c1)c(C)c(C)n2Cc1ccc(-c2ccccc2C(=O)O)cc1)c1ccccc1` (stereo not drawn), for which the EC50 in [1] was 0.002 µM; in [4] it was over 10 µM; in data set [12], over 10 µM; in [13] it was over 10 µM; in data set [18] it was 5.51 µM. Moreover, the half-life in data set [2] is 4.58 h. The Activity in data set [3] was 25%; in [7] it was over 10%; in data set [11], 49%; in data set [15] it was 79%. The AUC in data set [5] amounted to 1330 ng·h/mL; in [17] it was 1150 ng·h/mL. Further, the IC50 in [6] and in data set [9] was over 10 µM throughout. Further, the clearance in data set [8] stood at 40 mL/min/kg. For the same compound, the bioavailability in data set [10] came to 52%. For the same compound, in [14], the highest level (Cmax) was 319 ng/mL. Further, in [16], the Vd came to 17 L/kg.
